Reference: PMC10643470, “Knockout or inhibition of USP30 protects dopaminergic neurons in a Parkinson’s disease mouse model” (Nature Communications, 2023)
Values joined by “and” are separate entries in the source; they are usually repeats but may differ in a detail not shown here. Identical values can stand only once. Like-named read-outs stand apart in the source and are kept apart here.

What was measured:
[1] = molecular target: T1, mouse USP30 (Mus musculus, UniProt Q3UN04); assay: USP30 biochemical fluorescence polarization assay (mouse); conditions: read-out: Mouse USP30 FP assay (IC50)
T1 construct: Mouse USP30(57-517) (Boston Biochem, #E-582M); purchased Boston Biochem E-582M
T1 sequence (Q3UN04 57-517): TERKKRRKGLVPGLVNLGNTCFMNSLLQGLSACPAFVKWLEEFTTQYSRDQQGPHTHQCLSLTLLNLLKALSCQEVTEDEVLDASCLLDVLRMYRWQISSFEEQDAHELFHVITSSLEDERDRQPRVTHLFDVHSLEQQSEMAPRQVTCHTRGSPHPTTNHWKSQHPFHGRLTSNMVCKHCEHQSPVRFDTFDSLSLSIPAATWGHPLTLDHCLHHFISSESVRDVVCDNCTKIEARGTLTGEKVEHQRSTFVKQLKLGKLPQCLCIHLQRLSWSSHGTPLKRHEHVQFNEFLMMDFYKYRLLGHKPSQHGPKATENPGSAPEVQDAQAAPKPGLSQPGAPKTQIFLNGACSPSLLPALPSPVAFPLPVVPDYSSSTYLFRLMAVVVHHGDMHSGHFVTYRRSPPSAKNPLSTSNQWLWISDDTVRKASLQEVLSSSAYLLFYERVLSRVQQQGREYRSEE
Procedure: USP30 enzyme was diluted in reaction buffer (40 mM Tris HCl, pH 7.5, 0.005% Tween 20, 0.5 mg/ml BSA, 5 mM BME) to achieve a final concentration of 8 nM for human USP30 and 10 nM for mouse USP30, the compound was added and incubated for 30 min at room temp then reactions initiated by addition of Ub-Lys-TAMRA (final conc of 50 nM). Fluorescence was measured immediately after the addition of substrate and following a 2 h incubation on Pherastar Plus or FSX with λ Excitation 540 nm and λ Emission 590 nm.

[2] = tested on: TOM20-ubiquitylation in alpha-synuclein A53T mutated iPSC-derived dopaminergic neurons; assay: TOM20-ubiquitylation in A53T iPSC-derived dopaminergic neurons; assay type: cell-based, human; conditions: no exogenous stimuli
Text: Donor-derived DopaNeuron lines were generated from source material provided by the Parkinson’s Progression Markers Initiative (PPMI) through The Michael J. Fox Foundation. Human iPS cells-derived DopaNeurons were purchased from Fujifilm/Cellular Dynamics. Apparently healthy normal (AHN) (catalog # R1088) or alpha-synuclein A53T mutated (A53T) (catalog # R1109) iPSC-derived dopaminergic neurons (dopaneurons) were thawed from liquid nitrogen. 400 000 viable (counted using a cell counter) dopaneurons […] were plated per well into 24 well plates on day 0 in complete maintenance medium (CMM).
A half-medium change was performed on the cells on Day 3 with CMM. On Day 5 cells were half-medium changed with complete brainphys medium. […] Cells were given half medium changes with or without compounds (depending on whether treatments with compound had started) every 2-3 days.

[3] = Mouse exploratory toxicology; assay type: in vivo; conditions: two weeks of dosing, dose levels up to 300 mg/kg/day
[4] = tested on: AAV-A53T-SNCA PD mouse model; assay: Total αSyn and phospho-S129 αSyn immunostaining in SNpc, AAV-A53T-SNCA mouse model (compound study); assay type: in vivo
Text: For the compound study, the fixed, cryoprotected and frozen midbrain samples were sectioned as coronal sections at 100 µm intervals through SNpc and ventral tegmental area (VTA) and mounted on glass slides. Sectioning was started at −2.6 mm from bregma and continued to −3.7 mm from bregma in the AP axis (coordinates based on Franklin & Paxinos: The Mouse Brain in Stereotaxic Coordinates). For the immunostaining, the sections were stained with anti-TH following permeabilization. The stained sections were scanned with the Olympus VS120 slide scanner and analyzed with a VIS-Visiopharm Integrator System (Visiopharm, Denmark) by a blinded data analyst. All cells of interest with visible nuclei were labeled manually and counted using an APP (Analysis Protocol Package), scaled by section thickness and sectioning interval to estimate the total cell population in the SNpc. For immunostaining of Ser129 αSyn phosphorylation, TSA amplification was used with primary antibody ab51253 (Abcam). Blinded analysis was used, and positive cells per area were determined. For dual IF IHC of Iba1 (WAKO) and GFAP (ab4674 – Abcam), the stained sections were scanned and analyzed by a blinded data analyst. Analysis determines the percentage of positive staining area [%area = (stained area/region area) * (100)]. To calculate % of stained area, the same threshold value was applied to all sections with the same antibody staining. All pixels above the threshold value were considered positive. All striatal densitometry and neuronal counting data for both KO and inhibitor studies were obtained by an investigator blinded to genotype and treatment.

[5] = molecular target: USP2 (Homo sapiens, UniProt O75604); assay: DUB/cathepsin selectivity biochemical assay
Sequence of USP2 (O75604 whole entry, species assumed): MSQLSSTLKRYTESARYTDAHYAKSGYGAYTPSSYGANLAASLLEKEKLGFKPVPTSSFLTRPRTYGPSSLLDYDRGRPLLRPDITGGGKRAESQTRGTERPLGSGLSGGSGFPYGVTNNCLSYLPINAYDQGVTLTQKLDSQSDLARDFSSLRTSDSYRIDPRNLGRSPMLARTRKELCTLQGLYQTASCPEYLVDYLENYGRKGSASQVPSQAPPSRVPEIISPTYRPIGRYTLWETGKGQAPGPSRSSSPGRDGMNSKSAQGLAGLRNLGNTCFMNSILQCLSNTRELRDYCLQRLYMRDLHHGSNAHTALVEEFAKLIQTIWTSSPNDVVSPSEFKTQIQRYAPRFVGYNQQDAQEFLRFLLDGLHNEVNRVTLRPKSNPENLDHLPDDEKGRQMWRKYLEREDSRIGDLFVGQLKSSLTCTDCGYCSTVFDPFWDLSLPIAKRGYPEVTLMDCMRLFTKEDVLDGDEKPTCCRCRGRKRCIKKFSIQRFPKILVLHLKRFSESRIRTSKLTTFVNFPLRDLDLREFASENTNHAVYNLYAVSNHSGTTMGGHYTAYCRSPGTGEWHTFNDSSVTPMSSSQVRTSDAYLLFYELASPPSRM

[6] = molecular target: Cathepsin L (Homo sapiens, UniProt P07711); assay: DUB/cathepsin selectivity biochemical assay; conditions: Supplementary Fig. 6a; read-out: Selectivity vs Cathepsins (IC50), Cath L
Sequence of Cathepsin L (P07711 114-333, species assumed): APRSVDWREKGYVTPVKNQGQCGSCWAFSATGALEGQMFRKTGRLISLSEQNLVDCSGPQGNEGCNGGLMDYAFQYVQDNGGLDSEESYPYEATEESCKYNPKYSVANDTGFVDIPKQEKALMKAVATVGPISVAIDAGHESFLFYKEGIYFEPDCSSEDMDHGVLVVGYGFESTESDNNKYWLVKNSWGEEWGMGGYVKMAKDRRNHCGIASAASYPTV

[7] = molecular target: USP16 (Homo sapiens, UniProt Q9Y5T5); assay: DUB/cathepsin selectivity biochemical assay
[8] = molecular target: USP28 (Homo sapiens, UniProt Q96RU2); assay: DUB/cathepsin selectivity biochemical assay
[9] = molecular target: USP22 (Homo sapiens, UniProt Q9UPT9); assay: DUB/cathepsin selectivity biochemical assay
Sequence of USP22 (Q9UPT9 whole entry, species assumed): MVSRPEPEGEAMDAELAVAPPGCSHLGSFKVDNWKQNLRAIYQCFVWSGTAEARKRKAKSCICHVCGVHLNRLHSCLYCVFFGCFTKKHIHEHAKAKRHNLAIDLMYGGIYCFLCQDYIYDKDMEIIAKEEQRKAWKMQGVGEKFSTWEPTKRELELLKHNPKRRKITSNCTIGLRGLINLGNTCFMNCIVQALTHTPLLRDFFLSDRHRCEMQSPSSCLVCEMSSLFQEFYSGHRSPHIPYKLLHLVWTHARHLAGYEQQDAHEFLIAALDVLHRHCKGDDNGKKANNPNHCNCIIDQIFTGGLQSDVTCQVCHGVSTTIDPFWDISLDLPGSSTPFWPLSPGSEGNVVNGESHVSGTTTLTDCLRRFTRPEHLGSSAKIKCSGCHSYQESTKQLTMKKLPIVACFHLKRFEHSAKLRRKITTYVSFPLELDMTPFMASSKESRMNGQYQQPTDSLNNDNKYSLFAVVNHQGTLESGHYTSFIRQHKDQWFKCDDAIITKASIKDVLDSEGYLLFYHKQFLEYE

[10] = molecular target: T2, USP36 CD (Homo sapiens, UniProt Q9P275); assay: DUB/cathepsin selectivity biochemical assay
T2 construct: USP36 CD
T2 sequence (Q9P275 122-423 limits assumed): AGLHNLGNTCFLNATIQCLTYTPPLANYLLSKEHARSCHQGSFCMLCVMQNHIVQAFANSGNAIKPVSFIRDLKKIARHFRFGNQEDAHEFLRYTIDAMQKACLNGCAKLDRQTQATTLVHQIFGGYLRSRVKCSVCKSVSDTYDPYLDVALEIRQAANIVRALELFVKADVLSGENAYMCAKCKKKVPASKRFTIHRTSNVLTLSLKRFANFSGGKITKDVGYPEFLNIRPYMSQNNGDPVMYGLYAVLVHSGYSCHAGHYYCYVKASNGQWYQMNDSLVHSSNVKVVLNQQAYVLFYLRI

[11] = molecular target: ATXN3L (Homo sapiens, UniProt Q9H3M9); assay: DUB/cathepsin selectivity biochemical assay
[12] = molecular target: USP47 (Homo sapiens, UniProt Q96K76); assay: DUB/cathepsin selectivity biochemical assay
Sequence of USP47 (Q96K76 whole entry, species assumed): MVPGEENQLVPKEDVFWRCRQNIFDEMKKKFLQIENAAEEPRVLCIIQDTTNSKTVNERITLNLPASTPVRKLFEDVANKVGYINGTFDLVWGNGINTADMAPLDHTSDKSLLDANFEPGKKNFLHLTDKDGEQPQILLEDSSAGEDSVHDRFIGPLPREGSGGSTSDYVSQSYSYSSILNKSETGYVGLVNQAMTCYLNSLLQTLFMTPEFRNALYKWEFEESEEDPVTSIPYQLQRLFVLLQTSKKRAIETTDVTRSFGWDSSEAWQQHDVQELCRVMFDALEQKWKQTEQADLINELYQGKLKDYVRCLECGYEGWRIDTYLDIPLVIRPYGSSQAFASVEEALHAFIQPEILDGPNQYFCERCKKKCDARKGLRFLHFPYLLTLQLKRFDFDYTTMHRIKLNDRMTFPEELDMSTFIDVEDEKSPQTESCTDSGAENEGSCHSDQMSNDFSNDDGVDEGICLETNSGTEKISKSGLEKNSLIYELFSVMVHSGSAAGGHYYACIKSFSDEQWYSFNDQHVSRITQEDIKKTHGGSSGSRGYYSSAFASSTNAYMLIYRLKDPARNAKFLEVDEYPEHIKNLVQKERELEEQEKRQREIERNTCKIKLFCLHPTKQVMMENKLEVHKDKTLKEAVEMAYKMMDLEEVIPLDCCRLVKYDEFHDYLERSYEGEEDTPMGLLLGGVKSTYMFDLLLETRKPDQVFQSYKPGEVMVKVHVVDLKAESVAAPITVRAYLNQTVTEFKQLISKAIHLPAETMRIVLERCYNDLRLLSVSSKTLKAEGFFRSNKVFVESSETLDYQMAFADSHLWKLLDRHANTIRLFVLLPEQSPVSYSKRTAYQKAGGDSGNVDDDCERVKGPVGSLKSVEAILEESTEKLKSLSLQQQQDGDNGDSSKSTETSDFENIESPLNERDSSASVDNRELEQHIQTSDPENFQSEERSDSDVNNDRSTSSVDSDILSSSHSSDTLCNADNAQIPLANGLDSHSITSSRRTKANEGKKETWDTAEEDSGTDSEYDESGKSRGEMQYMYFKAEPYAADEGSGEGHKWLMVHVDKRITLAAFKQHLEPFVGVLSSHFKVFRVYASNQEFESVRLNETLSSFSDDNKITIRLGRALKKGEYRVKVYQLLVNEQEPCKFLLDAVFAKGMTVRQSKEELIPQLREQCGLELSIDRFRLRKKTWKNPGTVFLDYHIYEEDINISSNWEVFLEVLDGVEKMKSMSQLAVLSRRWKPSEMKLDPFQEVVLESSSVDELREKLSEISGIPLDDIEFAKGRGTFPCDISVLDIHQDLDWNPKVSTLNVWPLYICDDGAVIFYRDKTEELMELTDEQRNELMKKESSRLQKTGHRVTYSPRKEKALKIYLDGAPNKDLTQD

[13] = molecular target: USP8 (Homo sapiens, UniProt P40818); assay: DUB/cathepsin selectivity biochemical assay
[14] = molecular target: USPL1 (Homo sapiens, UniProt Q5W0Q7); assay: DUB/cathepsin selectivity biochemical assay
[15] = molecular target: OTUD6A (Homo sapiens, UniProt Q7L8S5); assay: DUB/cathepsin selectivity biochemical assay
Sequence of OTUD6A (Q7L8S5 whole entry, species assumed): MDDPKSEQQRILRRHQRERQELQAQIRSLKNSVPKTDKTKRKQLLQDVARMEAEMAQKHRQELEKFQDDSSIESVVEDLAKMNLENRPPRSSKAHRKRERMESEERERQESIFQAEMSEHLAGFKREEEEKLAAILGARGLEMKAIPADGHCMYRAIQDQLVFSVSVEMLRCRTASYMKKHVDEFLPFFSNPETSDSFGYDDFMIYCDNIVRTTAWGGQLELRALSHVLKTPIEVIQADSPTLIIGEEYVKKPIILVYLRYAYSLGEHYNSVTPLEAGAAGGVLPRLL

[16] = molecular target: USP48 (Homo sapiens, UniProt Q86UV5); assay: DUB/cathepsin selectivity biochemical assay
Sequence of USP48 (Q86UV5 whole entry, species assumed): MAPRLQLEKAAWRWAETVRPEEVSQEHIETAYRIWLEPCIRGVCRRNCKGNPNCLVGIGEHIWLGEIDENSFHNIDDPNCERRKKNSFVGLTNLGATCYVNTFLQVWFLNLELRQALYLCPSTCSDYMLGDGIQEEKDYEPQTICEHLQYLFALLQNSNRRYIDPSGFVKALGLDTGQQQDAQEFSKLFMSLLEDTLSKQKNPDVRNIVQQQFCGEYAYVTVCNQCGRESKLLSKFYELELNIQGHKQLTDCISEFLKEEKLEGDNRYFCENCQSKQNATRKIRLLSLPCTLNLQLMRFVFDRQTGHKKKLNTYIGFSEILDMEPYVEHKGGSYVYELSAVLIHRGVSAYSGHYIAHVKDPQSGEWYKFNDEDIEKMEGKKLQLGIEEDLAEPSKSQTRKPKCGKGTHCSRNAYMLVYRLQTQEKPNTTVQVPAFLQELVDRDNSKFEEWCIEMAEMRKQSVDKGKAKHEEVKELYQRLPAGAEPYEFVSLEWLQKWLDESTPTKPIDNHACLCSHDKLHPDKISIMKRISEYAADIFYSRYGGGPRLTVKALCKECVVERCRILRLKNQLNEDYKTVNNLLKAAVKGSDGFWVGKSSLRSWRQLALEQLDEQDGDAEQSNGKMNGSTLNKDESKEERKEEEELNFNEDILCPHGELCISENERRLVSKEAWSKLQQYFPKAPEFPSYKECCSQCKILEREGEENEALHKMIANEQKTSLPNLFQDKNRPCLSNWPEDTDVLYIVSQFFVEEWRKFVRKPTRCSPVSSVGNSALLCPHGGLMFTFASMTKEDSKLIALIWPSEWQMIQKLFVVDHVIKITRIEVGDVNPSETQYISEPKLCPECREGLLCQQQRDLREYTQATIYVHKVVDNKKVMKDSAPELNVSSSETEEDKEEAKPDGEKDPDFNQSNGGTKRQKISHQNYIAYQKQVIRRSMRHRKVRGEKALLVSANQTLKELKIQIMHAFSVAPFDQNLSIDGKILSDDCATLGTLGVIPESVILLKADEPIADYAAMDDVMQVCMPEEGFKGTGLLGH

[17] = molecular target: CYLD (Homo sapiens, UniProt Q9NQC7); assay: DUB/cathepsin selectivity biochemical assay
[18] = molecular target: T3, USP34 CORE (Homo sapiens, UniProt Q70CQ2); assay: DUB/cathepsin selectivity biochemical assay
T3 construct: USP34 CORE

[19] = molecular target: T4, OTUD1 CD (Homo sapiens, UniProt Q5VV17); assay: DUB/cathepsin selectivity biochemical assay
T4 construct: OTUD1 CD
T4 sequence (Q5VV17 309-438 limits assumed): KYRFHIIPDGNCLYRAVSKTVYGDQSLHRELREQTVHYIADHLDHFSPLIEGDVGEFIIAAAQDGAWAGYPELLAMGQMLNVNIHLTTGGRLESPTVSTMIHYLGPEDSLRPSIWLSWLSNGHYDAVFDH

[20] = molecular target: USP46/UAF1 (Homo sapiens, UniProt P62068); assay: DUB/cathepsin selectivity biochemical assay
[21] = molecular target: OTUD5(p177S) (Homo sapiens, UniProt Q96G74); assay: DUB/cathepsin selectivity biochemical assay
[22] = molecular target: MINDY2 (Homo sapiens, UniProt Q8NBR6); assay: DUB/cathepsin selectivity biochemical assay
[23] = molecular target: SENP6 (Homo sapiens, UniProt Q9GZR1); assay: DUB/cathepsin selectivity biochemical assay
[24] = AAV-A53T + MTX115325 (50 mg/kg), Group 5, Left hemisphere, individual animal values (Animal ID in r3)
[25] = AAV-A53T + MTX115325 (50 mg/kg), Group 5, Right hemisphere, individual animal values (Animal ID in r3)

Structure (SMILES): C[C@@H]1[C@H]2CCN(C(=O)c3ncc(-c4ccnc(C#N)c4)o3)[C@H]2CN1C#N [MTX115325]
- IC50 [1]: 0.013 µM
- TOM20-ubiquitylation ([2]; A53T neurons, 7 days at 10 nM, 100 nM or 1 µM): caused the upregulation of TOM20-ubiquitylation
- TOM20-ubiquitylation ([2]; A53T αSyn background, 24 h, 1 µM): increased TOM20-ubiquitylation
- Tolerability (clinical observations, pathology) [3]: well tolerated with no adverse clinical observations or pathology findings
- Phosphorylated S129-αSyn ([4]; 50 mg/kg, SNpc): significantly reduced
- Figure S7c immunostaining quantification, Left [4, 24]: 0 (7×) and 0.04487 and 0.008105 and 0.007836 and 0.01908 and 0.009848 and 0.001515 and 0.003247 and 0.005828
- Figure S7d immunostaining quantification, Left [4, 24]: 0 (10×) and 1.603 and 0.7671 and 1.12 and 0.7902
- Figure S7c immunostaining quantification, Right [4, 25]: 0.007974 and 0.07707 and 0.1923 and 0.06947 and 0.001983 and 0 (5×) and 0.06633 and 0.1857 and 0.01165 and 0.002029 and 6.4046e-5
- Figure S7d immunostaining quantification, Right [4, 25]: 57.3627 and 99.9359 and 9.299 and 6.893 and 1.412 and 0 (4×) and 0.2913 and 18.3383 and 84.6359 and 0.2072 and 0.6527
- IC50 ([5]; Supplementary Fig. 6a, read-out: Selectivity vs DUBs (IC50), USP2): 24.9 µM
- IC50 ([5]; USP2, read-out: IC50): 24.9 µM
- IC50 [6]: 42.1 µM
- IC50 [7]: 83.7 µM
- IC50 [8]: 106 µM
- IC50 [9]: 147 µM
- IC50 [10]: 157 µM
- IC50 [11]: 173 µM
- IC50 [12]: 212 µM
- IC50 [13]: > 300 µM
- IC50 [14]: > 300 µM
- IC50 [15]: > 300 µM
- IC50 [16]: > 300 µM
- IC50 [17]: > 300 µM
- IC50 [18]: > 300 µM
- IC50 [19]: > 300 µM
- IC50 [20]: > 300 µM
- IC50 [21]: > 300 µM
- IC50 [22]: > 300 µM
- IC50 [23]: > 300 µM
